In one data set the test system is HEP-G2 cells. The data set is described as follows: cells. The note with it: for HEP-G2 Tox: human, 3 h. On the procedure: Assay (I): Glucose utilisation in a human hepatocytes cell line (HEP-G2 cells)
The assay measures indirectly the activity of the respiratory chain in HEP-G2 cells by using D-(3-^3H(N))-glucose. The ^3H-proton will first be released during the metabolism of glucose where it will be incorporated into water. The water is thereafter separated from the D-(3-^3H(N))-glucose by evaporation. Finally, the radioactivity in the water is determined using a Topcounter.
HEP-G2 cells obtained from ATCC (Maryland, USA), are cultured in assay medium (MEM medium) with the following addition 1× non-essential amino acids (M7145, 2 mM glutamine, 100 units/ml penicillin and streptomycin, 0.0075% sodium bicarbonate, 1 mM sodium pyrovate and 0.5% BSA (Bovin Serum Albumin, Sigma Missouri, USA)) at 37° C. and 5% CO2. All media are obtained by Gibco (Life Technologies, Maryland, USA) where not otherwise mentioned.
At day zero the cells are harvested using trypsin-EDTA and washed in assay medium using centrifugation. […] The cells are then incubated at 37° C. and 5% CO2 overnight.
(§1) The next day the compounds to be tested are diluted in DMSO (Sigma, Missouri, USA) to 100 times final concentration. They are then diluted to a final concentration in assay medium containing 10 μCi/ml D-(3-^3H(N))-glucose (PerkinElmer Life Sciences Inc., Boston, USA). The medium is removed from the cells and 200 μl of the compound dilutions are added in duplicates. The cells are then incubated for another 3 hours at 37° C. and 5% CO2. Finally the cells are lysed by adding 50 μl 10% TCA (trichloroacetic acid). 300 μl of sterile water is then added to the 24-wells that surrounds the StripPlate wells. The plate is sealed with Top-seal-tape (Packard, PerkinElmer Life Sciences Inc., Boston, USA) and the plate is incubated in a heating cupboard at 50° C. to equilibrium the radioactive water formed in the respiratory chain into the water in the 24-well plate by evaporate. The plates incubate for 8 hours where the heating cupboard is turned off. The top seal is removed when the samples have reached room temperature. One ml scintillation liquid (Packard Microscient, PerkinElmer Life Sciences Inc., Boston, USA) is added to all the samples and the radioactivity is determined using a Topcounter (Packard, PerkinElmer Life Sciences Inc., Boston, USA). Non-specific activity is determined by evaporating 200 μl of the dilution medium containing the D-(3-^3H(N))-glucose into 300 μl sterile water, and total radioactivity is determined by counting 5 μl assay medium with 10 μCi/ml D-(3-^3H(N))-glucose.
The cpm (counts per minute) representing the non-specific radioactivity in the D-(3-^3H(N))-glucose is subtracted from all incubated values. Then mean basal value (samples without any compound added) is subtracted from the values of all stimulated samples (samples added different concentrations of the different test compounds). All these calculations are done using GraphPad Prism 3.0 (GraphPad software, Inc.). The maximal stimulation caused by the test compounds is calculated in percentage of maximal stimulation caused by either DNP or FCCP.
When calculating the concentration-response curve the maximal glucose utilisation stimulated by FCCP or DNP (subtracted non-specific and basal values) is converted to 100% and all the other values are expressed in percentage of this value. Using these percentage values and the compound concentration a concentration-response curve is calculated using sigmoidal dose-response (variable slope) equation (all the calculations are done by GraphPad Prism 3.0 (GraphPad software, Inc.));
Y=Bottom+(Top−Bottom)/(1+10^((LogEC50-X)*slope))
(§2) X is the logarithm of the molar concentration of the test compound.
Y is the degree of stimulation caused by the compound measured as a percentage of the maximal stimulation achieved by use of FCCP or DNP.
The results achieved with these concentrations are used to determine the slope in this area using the following equation: […]

Another data set concerns FSK-4 cells. The data set can be described thus: Assay (IV): Glucose utilisation in FSK-4 cells. It counts as cell-based. Conditions: FSK-4 cells; for EC50: glucose utilisation, 24 hours incubation, read-out: FSK4 EC50; for Emax: maximal efficacy relative to FCCP, read-out: FSK4 Emax (% of FCCP). As to the method:
Assay (IV): Glucose Utilisation in FSK-4 Cells
The assay measures indirectly the activity of the respiratory chain in FSK-4 cells by using D-(6-^3H(N))-glucose. The ^3H-proton will first be released in the TCA cyclus and transported to the respiratory chain where it will be incorporated into water. The water is thereafter separated from the D-(6-^3H(N))-glucose by evaporation. Finally, the radioactivity in the water is determined using a Topcounter.
FSK-4 cells obtained from ATCC (Maryland, USA), are cultured in growth medium (McCoy's medium with the following addition 100 units/ml penicillin and streptomycin and 10% FCS (fetal calf serum)) at 37° C. and 5% CO2. All media are obtained by Gibco (Life Technologies, Maryland, USA) where not otherwise mentioned.
At day zero the cells are harvested using trypsin-EDTA and washed in assay medium (MEM medium with the following addition 1× non-essential amino acids (M7145, 2 mM glutamin, 100 units/ml pencillin and streptomycin, 0.0075% sodium bicarbonate, 1 mM sodium pyrovate and 2% horse serum) using centrifugation. The cells are plated into single StripPlates wells (Corning B.V.Life Sciences, The Netherlands) that are placed into 24-well plates (Corning B.V.Life Sciences, The Netherlands) with a concentration of 1,5×10^4 cells/100 μl assay medium/well. The cells are then incubated at 37° C. and 5% CO2 overnight.
as §1, with “are diluted to different concentrations in DMSO” for “are diluted in DMSO”, “10 μCi/ml D-(6-^3H(N))-glucose (PerkinElmer Life” for “10 μCi/ml D-(3-^3H(N))-glucose (PerkinElmer Life”, “for another 24 hours at” for “for another 3 hours at”, “10% TCA (tri-chloroacetatic acid). 300” for “10% TCA (trichloroacetic acid). 300”, “containing the D-(6-^3H(N))-glucose into 300” for “containing the D-(3-^3H(N))-glucose into 300”, “10 μCi/ml D-(6-^3H(N))-glucose.” for “10 μCi/ml D-(3-^3H(N))-glucose.”
All calculations are done using GraphPad Prism 3.0 (GraphPad software, Inc.) From concentration-response curves the half maximal concentration (EC50) and maximal efficacy (Emax) are calculated using equation 1.
Y=Bottom+(Top−Bottom)/(1+10^((LogEc50-X)*slope))
as §2
Y is the degree of stimulation caused by the compound measured as percentage of the basal stimulation.
The calculated EC50 value is then used to determine the concentrations used in a study where the Hill slope is calculated.
From the double logarithmic plot of the increase in glucose utilisation and the compound concentration the Hill slope is calculated accordingly to equation 2.
It is presumed, that the maximal increase in the glucose utilisation (as measured in the FSK-4 glucose utilisation assay) is limited by the capacity of the metabolism.

Where [1] appears, read: Homo sapiens, HepG2, 3 h, read-out: HEP-G2 EC50, HEP-G2 cells, glucose utilisation, 3 hours incubation.
The mark [2] stands for this setting: Homo sapiens, HepG2, read-out: HEP-G2 Emax (% of FCCP), HEP-G2 cells, maximal stimulation relative to FCCP.
Setting [3] is: Homo sapiens, HepG2, read-out: HEP-G2 Emax (μM), HEP-G2 cells, concentration at which Emax is achieved (CEmax).

Where two headings read alike, the source gives them in different places.

With `Cc1c(Cl)cc(C(C)(C)C)c(O)c1C(=O)Nc1ccc(C#N)c(C(F)(F)F)c1` [Example 43, 3-Tert-Butyl-5-Chloro-N-(4-Cyano-3-Trifluoromethyl-Phenyl)-2-Hydroxy-6-Methyl-Benzamide], the EC50 (in general, the concentration needed to bring the measured effect to its halfway point) with HEP-G2 cells (Homo sapiens, HepG2, 3 h, read-out: HEP-G2 EC50) was determined as 850 nM; with FSK-4 cells, 300 nM. The Emax (in general, the maximal effect, on the per cent scale that the assay sets) with HEP-G2 cells (Homo sapiens, HepG2, read-out: HEP-G2 Emax (% of FCCP)) amounted to 95%; with FSK-4 cells it was 80%. The EC (Emax) in the data set on HEP-G2 cells (Homo sapiens, HepG2, read-out: HEP-G2 Emax (μM)) amounted to 3 µM.

As for `O=C(Nc1ccc([N+](=O)[O-])cc1Cl)c1cccc(-c2ccccc2)c1O` [Example 44, 2-Hydroxy-Biphenyl-3-Carboxylic Acid (2-Chloro-4-Nitro-Phenyl)-Amide], the EC50 with HEP-G2 cells (setting [1]) came to 2000 nM; with HEP-G2 cells (read-out: HEP-G2 EC50, HEP-G2 cells, glucose utilisation, 3 hours incubation), 1400 nM; in the data set with FSK-4 cells it was 3600 nM. Also, the maximum response (Emax) in the data set with HEP-G2 cells (setting [2]) was determined as 94%; in the data set on FSK-4 cells, 90%.

Consider `Cc1c(Cl)cc(C(C)(C)C)c(O)c1C(=O)Nc1cc(C(F)(F)F)cc(C(F)(F)F)c1` [Example 47, N-(3,5-Bis-Trifluoromethyl-Phenyl)-3-Tert-Butyl-5-Chloro-2-Hydroxy-6-Methyl-Benzamide], for which the EC50 came to 700 nM in the data set on HEP-G2 cells (setting [1]) and 1000 nM in the data set on FSK-4 cells. The Emax in the data set on HEP-G2 cells (setting [2]) was found to be 75%; in the data set with FSK-4 cells, 90%. Also, the EC (Emax) in the data set on HEP-G2 cells (setting [3]) was 10 µM. In the data set with HEP-G2 cells, the “HEP-G2 Tox” value was “Tox 0.1 mM”.

`Cc1c(Cl)cc(C(C)(C)C)c(O)c1C(=O)Nc1cc(C(F)(F)F)ccc1F` [Example 48, 3-Tert-Butyl-5-Chloro-N-(2-Fluoro-5-Trifluoromethyl-Phenyl)-2-Hydroxy-6-Methyl-Benzamide]: the EC50 with HEP-G2 cells (setting [1]) worked out at 3500 nM; in the data set on FSK-4 cells, 2800 nM. In addition, the values for the Emax in the data set on HEP-G2 cells (setting [2]) and in the data set on FSK-4 cells were 95% and 85%, respectively. In the data set on HEP-G2 cells (setting [3]), the EC (Emax) is 10 µM. Moreover, the “HEP-G2 Tox” value in the data set with HEP-G2 cells came out at 0.1 mM.

`Cc1c(Cl)cc(C(C)(C)C)c(O)c1C(=O)Nc1ccc([N+](=O)[O-])c(C(F)(F)F)c1` [Example 49, 3-Tert-Butyl-5-Chloro-2-Hydroxy-6-Methyl-N-(4-Nitro-3-Trifluoromethyl-Phenyl)-Benzamide]: the EC50 in the data set on HEP-G2 cells (setting [1]) was 950 nM; in the data set with FSK-4 cells, 300 nM. For the same molecule, the Emax was determined as 105% in the data set with HEP-G2 cells (setting [2]) and 95% with FSK-4 cells. For the same molecule, in the data set on HEP-G2 cells (setting [3]), the EC (Emax) turned out to be 3 µM.

`Cc1c(Br)cc(C(C)(C)C)c(O)c1C(=O)Nc1ccc(C#N)cc1Cl` [Example 51, 3-Bromo-5-Tert-Butyl-N-(2-Chloro-4-Cyano-Phenyl)-6-Hydroxy-2-Methyl-Benzamide]: the EC50 with HEP-G2 cells (setting [1]) was 400 nM; in the data set on FSK-4 cells, 300 nM. For the same molecule, the results for the Emax with HEP-G2 cells (setting [2]) and in the data set on FSK-4 cells were 100% and 105%, respectively. The EC (Emax) in the data set with HEP-G2 cells (setting [3]) was determined as 3 µM.

As to `Cc1c(Br)cc(C(C)(C)C)c(O)c1C(=O)Nc1cc(C(F)(F)F)ccc1Cl` [Example 52, 3-Bromo-5-Tert-Butyl-N-(2-Chloro-5-Trifluoromethyl-Phenyl)-6-Hydroxy-2-Methyl-Benzamide], the EC50 was found to be 2400 nM with HEP-G2 cells (setting [1]) and 2500 nM with FSK-4 cells. Further, the values for the Emax with HEP-G2 cells (setting [2]) and in the data set with FSK-4 cells were 95% and 75%, respectively. Further, the EC (Emax) in the data set on HEP-G2 cells (setting [3]) worked out at 10 µM.

Turning to `Cc1c(Br)cc(C(C)(C)C)c(O)c1C(=O)Nc1ccc(Cl)cc1Cl` [Example 53, 3-Bromo-5-Tert-Butyl-N-(2,4-Dichloro-Phenyl)-6-Hydroxy-2-Methyl-Benzamide], the figures for the EC50 in the data set with HEP-G2 cells (setting [1]) and with FSK-4 cells were 4150 nM and 15000 nM, respectively. In addition, the Emax stood at 90% with HEP-G2 cells (setting [2]) and 95% in the data set with FSK-4 cells. In the data set with HEP-G2 cells (setting [3]), the EC (Emax) was 10 µM.

Consider `Cc1c(Br)cc(C(C)(C)C)c(O)c1C(=O)Nc1c(Cl)cc(Cl)cc1[N+](=O)[O-]` [Example 54, 3-Bromo-5-Tert-Butyl-N-(2,4-Dichloro-6-Nitro-Phenyl)-6-Hydroxy-2-Methyl-Benzamide], for which the EC50 in the data set with HEP-G2 cells (setting [1]) turned out to be 520 nM; in the data set on FSK-4 cells it was 300 nM. Besides, the maximal response (Emax) came to 90% in the data set with HEP-G2 cells (setting [2]) and 80% with FSK-4 cells. Also, the EC (Emax) with HEP-G2 cells (setting [3]) is 3 µM.

Turning to `Cc1c(Br)cc(C(C)(C)C)c(O)c1C(=O)Nc1c(Cl)cc([N+](=O)[O-])cc1Cl` [Example 55, 3-Bromo-5-Tert-Butyl-N-(2,6-Dichloro-4-Nitro-Phenyl)-6-Hydroxy-2-Methyl-Benzamide], the EC50 was 360 nM in the data set on HEP-G2 cells (setting [1]) and 300 nM in the data set with FSK-4 cells. Further, the results for the Emax with HEP-G2 cells (setting [2]) and with FSK-4 cells were 99% and 100%, respectively. The EC (Emax) in the data set with HEP-G2 cells (setting [3]) was 1 µM.

The record behind these values is patent US20040138301A1, “Chemical uncouplers for the treatment of obesity” (priority 2002, published 2004).
